We go through eleven molecules from US20260083865A1, “PROSTATE SPECIFIC MEMBRANE ANTIGEN (PSMA) LIGANDS AND USE THEREOF” (priority 2022, published 2026).

Like-named read-outs stand apart in the source and are kept apart here. Numbered stars: 1 amine (or outer) side, 2 acyl side, 3 side chain; on linkers, the order of the positions; unused ones are H or OH. Bridge positions count the residues as written; N and C are the ends. Square brackets hold non-standard residues; d marks the D form. Side chains are listed from the residue outwards. Peptide text beside a SMILES is read from it. * marks the point of attachment. DOTA = O=C(O)CN1CCN(CC(=O)O)CCN(CC(=O)*)CCN(CC(=O)O)CC1; X13 = C/N=C(/NC)N(C)CCC[C@H](N[*:1])C(=O)[*:2]; Oic = O=C(O)[C@@H]1C[C@@H]2CCCC[C@@H]2N1; Phe(4-Cl) = N[C@@H](Cc1ccc(Cl)cc1)C(=O)O; Isobutyryl(2-OH) = CC(C)(O)C(=O)*; X4 = O=C(CN1CCC(N[*:1])CC1)[*:2]; X1 = O=C(CC1CCN([*:1])CC1)[*:2]; Cit = NC(=O)NCCC[C@H](N)C(=O)O; Lys(Me) = CNCCCC[C@H](N)C(=O)O; Tle = CC(C)(C)[C@H](N)C(=O)O; NHCH2CH2NMe2 = CN(C)CCN*; AEEA = NCCOCCOCC(=O)O; Aib = CC(C)(N)C(=O)O; Guanidino = N=C(N)N*; βAla = NCCC(=O)O

Assay [1] deals with T1, PSMA-expressing C4-2 cells (Homo sapiens, UniProt Q04609).
T1 construct: PSMA-expressing C4-2 cells (ATCC, Cat. No. CRL-3314) were cultured in RPMI-1640; host or cells: C4-2 cells
As to the kind of experiment: FACS binding assay (competition with 50 nM PSM-0183). In short, it runs like this:
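C4-2 cells were incubated 1 h at 4 °C with 50 nM AF488-labelled peptide PSM-0183 plus increasing test compound concentrations, then washed twice in ice-cold buffer. Median fluorescence in the AF488 channel was read by flow cytometry. IC50/pIC50 was derived by 4PL fitting of MFI versus concentration.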
(In general: A flow cytometer gives signals particle by particle.)

The target of assay [2] is T2, Fc-fusion protein of human PSMA (hPSMA-Fc) (Homo sapiens, UniProt Q04609).
T2 construct: purchased Acro Biosystems PSA-H5264
Briefly: Surface plasmon resonance assay (Biacore T200, single cycle kinetic). It is filed as binding. The method in brief:
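hPSMA-Fc was captured (~1000 RU) on an Fc-binding-peptide CM5 chip, and compounds were run in single cycle kinetic mode at 25° C in HBST with 0.1% DMSO. Double-blank-corrected sensorgrams were fitted to a 1:1 Langmuir model to give KD, reported as pKD.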

The mark [3] stands for this setting: pIC50 category of FACS binding, C4-2 cells, read-out: pIC50 [C4-2] CAT (converted).
[4] abbreviates: pKD category for PSMA SPR activity assay, hPSMA-Fc, 25° C., read-out: pKD CAT (converted).
Setting [5] is: FACS binding, PSMA-expressing C4-2 cells, pIC50 category, read-out: pIC50 [C4-2] CAT (converted).
[6] abbreviates: PSMA SPR assay, hPSMA-Fc, 25° C., pKD category, read-out: pKD CAT (converted).

T1 sequence (Q04609 whole entry): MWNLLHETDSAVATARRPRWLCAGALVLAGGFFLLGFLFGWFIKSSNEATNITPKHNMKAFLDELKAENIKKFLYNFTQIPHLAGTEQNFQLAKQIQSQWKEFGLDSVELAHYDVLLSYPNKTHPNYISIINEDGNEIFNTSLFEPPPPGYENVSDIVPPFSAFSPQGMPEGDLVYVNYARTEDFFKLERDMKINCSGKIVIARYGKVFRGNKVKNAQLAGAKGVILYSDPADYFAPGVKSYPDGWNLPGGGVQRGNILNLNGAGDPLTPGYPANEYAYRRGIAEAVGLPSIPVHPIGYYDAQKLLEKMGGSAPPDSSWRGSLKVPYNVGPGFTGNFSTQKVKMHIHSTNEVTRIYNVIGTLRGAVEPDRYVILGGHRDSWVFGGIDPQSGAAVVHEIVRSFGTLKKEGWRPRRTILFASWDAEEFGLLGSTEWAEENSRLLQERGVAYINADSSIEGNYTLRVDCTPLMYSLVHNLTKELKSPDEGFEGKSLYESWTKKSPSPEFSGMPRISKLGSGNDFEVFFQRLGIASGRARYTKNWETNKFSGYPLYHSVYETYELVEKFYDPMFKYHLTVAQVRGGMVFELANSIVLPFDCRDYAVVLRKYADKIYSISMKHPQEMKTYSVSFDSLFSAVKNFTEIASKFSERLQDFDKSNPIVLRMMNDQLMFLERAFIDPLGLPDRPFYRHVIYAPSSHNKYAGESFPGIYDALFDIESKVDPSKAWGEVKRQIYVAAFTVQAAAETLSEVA
T2 sequence (Q04609 44-750 limits assumed): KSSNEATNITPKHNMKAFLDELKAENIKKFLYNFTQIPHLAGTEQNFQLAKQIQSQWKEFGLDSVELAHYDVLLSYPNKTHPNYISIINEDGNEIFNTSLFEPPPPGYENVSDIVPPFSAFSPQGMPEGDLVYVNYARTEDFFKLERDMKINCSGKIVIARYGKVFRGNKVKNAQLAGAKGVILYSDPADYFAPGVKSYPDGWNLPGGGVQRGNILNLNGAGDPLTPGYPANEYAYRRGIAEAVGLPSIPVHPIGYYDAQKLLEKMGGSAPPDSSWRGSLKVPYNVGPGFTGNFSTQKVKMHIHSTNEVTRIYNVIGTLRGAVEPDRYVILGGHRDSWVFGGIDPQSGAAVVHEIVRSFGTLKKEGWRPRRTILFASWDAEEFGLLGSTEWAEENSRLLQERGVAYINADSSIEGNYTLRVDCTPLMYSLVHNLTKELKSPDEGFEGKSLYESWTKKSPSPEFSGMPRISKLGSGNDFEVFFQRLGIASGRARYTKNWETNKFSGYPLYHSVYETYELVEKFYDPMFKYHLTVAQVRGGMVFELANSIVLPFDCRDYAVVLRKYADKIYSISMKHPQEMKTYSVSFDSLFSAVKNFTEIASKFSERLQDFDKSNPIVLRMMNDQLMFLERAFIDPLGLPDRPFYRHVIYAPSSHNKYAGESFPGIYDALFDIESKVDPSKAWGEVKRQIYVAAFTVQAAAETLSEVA

Turning to `CC(=O)N[C@H](C(=O)NC(C)(C)C(=O)N[C@@H](Cc1ccccc1)C(=O)N[C@H]1CSSC[C@@H](C(=O)N[C@H](C(=O)N[C@H](C(N)=O)[C@@H](C)O)C(C)(C)C)NC(=O)[C@H](CC(N)=O)NC(=O)[C@H](CCCCNC(=O)COCCOCCNC(=O)CN2CCN(CC(=O)O)CCN(CC(=O)O)CCN(CC(=O)O)CC2)NC(=O)[C@H](CCCNC(=N)N)NC(=O)[C@H](CCCCN)NC1=O)[C@@H](C)O` [PSM-0401, Ac-Thr-Aib-Phe-[Cys-Lys-Arg-Lys(DOTA-020c)-Asn-Cys]-Tle-Thr-NH2] (Ac-T[Aib]FCKRK([AEEA-DOTA])NC[Tle]T-NH2; disulfide 4-9), the IC50 in assay [1] (setting [3]) is below 200 nM. Also, the Kd in assay [2] (setting [4]) is below 12.6 nM.

With `C[C@@H](O)[C@H](NC(=O)CN1CCN(CC(=O)O)CCN(CC(=O)O)CCN(CC(=O)O)CC1)C(=O)NC(C)(C)C(=O)N[C@@H](Cc1ccccc1)C(=O)N[C@H]1CSSC[C@@H](C(=O)N[C@H](C(=O)NCCC(N)=O)C(C)(C)C)NC(=O)[C@H](CC(N)=O)NC(=O)C(C)(C)NC(=O)[C@H](CCCNC(=N)N)NC(=O)[C@H](CCCCN)NC1=O` [PSM-0539, DOTA-Thr-Aib-Phe-[Cys-Lys-Arg-Aib-Asn-Cys]-Tle-Bal-NH2] ({DOTA}-T[Aib]FCKR[Aib]NC[Tle][βAla]-NH2; disulfide 4-9), the IC50 in assay [1] (setting [3]) was below 200 nM. Besides, the Kd in assay [2] (setting [4]) is 12.6 to 126 nM.

For the molecule `C[C@@H](O)[C@H](NC(=O)[C@@H](NC(=O)[C@@H]1CSSC[C@H](NC(=O)[C@H](Cc2ccc(Cl)cc2)NC(=O)C(C)(C)O)C(=O)N[C@@H](CCCCN)C(=O)N[C@@H](CCCNC(=N)N)C(=O)NC(C)(C)C(=O)N[C@@H](CC(N)=O)C(=O)N1)C(C)(C)C)C(N)=O` [PSM-0461, Hib-Pcf-[Cys-Lys-Arg-Aib-Asn-Cys]-Tle-Thr-NH2] ({Isobutyryl(2-OH)}-[Phe(4-Cl)]CKR[Aib]NC[Tle]T-NH2; disulfide 2-7), the IC50 in assay [1] (setting [3]) is below 200 nM. In addition, in assay [2] (setting [4]), the Kd is 12.6 to 126 nM.

For `CCCC[C@H](NC(=O)[C@@H]1CSSC[C@H](NC(=O)[C@H](Cc2ccccc2)NC(=O)[C@H](C)NC(=O)[C@H](NC(C)=O)[C@H](C)O)C(=O)N[C@@H](CCCCN)C(=O)N[C@@H](CCCNC(=N)N)C(=O)N[C@@H](C)C(=O)N[C@@H](CC(N)=O)C(=O)N1)C(=O)N[C@H](C(=O)N[C@@H](CC(=O)O)C(N)=O)[C@@H](C)O` [PSM-0525, Ac-thr-Als-Phe-[Cys-Lys-Arg-Als-Asn-Cys]-Nle-Thr-Asp-NH2], the IC50 in assay [1] (setting [3]) is above 3160 nM. Moreover, the Kd in assay [2] (setting [4]) is above 501 nM.

Take `CC(=O)N[C@H](C(=O)NC(C)(C)C(=O)N[C@@H](Cc1ccccc1)C(=O)N[C@H]1CSSC[C@@H](C(=O)N[C@H](C(=O)N[C@H](C(=O)N[C@@H](CC(=O)O)C(N)=O)[C@@H](C)O)C(C)(C)C)NC(=O)[C@H](CC(N)=O)NC(=O)[C@H](C)NC(=O)[C@H](CCCNC(=N)N)NC(=O)[C@H](CCC(=O)O)NC1=O)[C@@H](C)O` [PSM-0291, Ac-Thr-Aib-Phe-[Cys-Glu-Arg-Ala-Asn-Cys]-Tle-Thr-Asp-NH2] (Ac-T[Aib]FCERANC[Tle]TD-NH2; disulfide 4-9): in assay [1] (setting [5]), the IC50 was 1260 to 3160 nM. The Kd in assay [2] (setting [6]) was above 501 nM.

For `C/N=C(/NC)N(C)CCC[C@@H]1NC(=O)[C@H](CCCCNC)NC(=O)[C@@H](NC(=O)[C@H](Cc2ccc(Cl)cc2)NC(=O)C(C)(C)NC(=O)[C@@H](NC(=O)CC2CCN(C(=O)CN3CCN(CC(=O)O)CCN(CC(=O)O)CCN(CC(=O)O)CC3)CC2)[C@@H](C)O)CSSC[C@@H](C(=O)N[C@H](C(=O)N[C@H](C(N)=O)[C@@H](C)O)C(C)(C)C)NC(=O)[C@H](CC(N)=O)NC(=O)C(C)(C)NC1=O` [PSM-0355, DOTA-Cmp-Thr-Aib-Pcf-[Cys-Lys(Me)-RMe3-Aib-Asn-Cys]-Tle-Thr-NH2] ({DOTA}-[X1]T[Aib][Phe(4-Cl)]C[Lys(Me)][X13][Aib]NC[Tle]T-NH2; disulfide 5-10), the IC50 in assay [1] (setting [5]) was 200 to 1260 nM. The Kd in assay [2] (setting [6]) is below 12.6 nM.

In assay [1], `CC(=O)NC(C)(C)C(=O)N[C@@H](Cc1ccc(Cl)cc1)C(=O)N[C@H]1CSSC[C@@H](C(=O)N[C@H](C(=O)N[C@H](C(=O)N2CCC(CC(=O)N[C@H](CCCCNC(=O)CN3CCN(CC(=O)O)CCN(CC(=O)O)CCN(CC(=O)O)CC3)C(N)=O)CC2)[C@@H](C)O)C(C)(C)C)NC(=O)[C@H](CC(N)=O)NC(=O)C(C)(C)NC(=O)[C@H](CCC(=O)NC(=N)N)NC(=O)[C@H](CCCCN)NC1=O` [PSM-0494, Ac-Aib-Pcf-[Cys-Lys-Gln(Gu)-Aib-Asn-Cys]-Tle-Thr-Cmp-lys(DOTA)-NH2] (Ac-[Aib][Phe(4-Cl)]CKE(Guanidino)[Aib]NC[Tle]T[X1][dK](DOTA)-NH2; disulfide 3-8) returned an IC50 below 200 nM. In assay [2], this molecule showed a Kd of 12.6 to 126 nM.

Turning to `C[C@@H](O)[C@H](NC(=O)CC1CCN(C(=O)CN2CCN(CC(=O)O)CCN(CC(=O)O)CCN(CC(=O)O)CC2)CC1)C(=O)NC(C)(C)C(=O)N[C@@H](Cc1ccc(Cl)cc1)C(=O)N[C@H]1CSSC[C@@H](C(=O)N[C@H](C(=O)NCCN(C)C)C(C)(C)C)NC(=O)[C@H](CC(N)=O)NC(=O)C(C)(C)NC(=O)[C@H](CCCNC(=N)N)NC(=O)[C@H](CCCCN)NC1=O` [PSM-0306, DOTA-Cmp-Thr-Aib-Pcf-[Cys-Lys-Arg-Aib-Asn-Cys]-Tle-en (Me) 2] ({DOTA}-[X1]T[Aib][Phe(4-Cl)]CKR[Aib]NC[Tle]-NHCH2CH2NMe2; disulfide 5-10), the IC50 in assay [1] (setting [5]) is below 200 nM. The Kd in assay [2] (setting [6]) is 12.6 to 126 nM.

Turning to `CC(=O)N[C@H](C(=O)NC(C)(C)C(=O)N[C@@H](Cc1ccccc1)C(=O)N[C@H]1CSSC[C@@H](C(=O)N[C@H](C(=O)N[C@H](C(=O)N[C@@H](CC(=O)O)C(N)=O)[C@@H](C)O)C(C)(C)C)NC(=O)[C@H](CC(N)=O)NC(=O)[C@@H]2C[C@@H]3CCCC[C@@H]3N2C(=O)[C@H](CCCNC(=N)N)NC(=O)[C@H](CCCCN)NC1=O)[C@@H](C)O` [PSM-0403, Ac-Thr-Aib-Phe-[Cys-Lys-Arg-Oic-Asn-Cys]-Tle-Thr-Asp-NH2] (Ac-T[Aib]FCKR[Oic]NC[Tle]TD-NH2; disulfide 4-9), the IC50 in assay [1] (setting [3]) was below 200 nM. Moreover, the Kd in assay [2] (setting [4]) is below 12.6 nM.

Turning to `C[C@@H](O)[C@H](NC(=O)[C@@H](NC(=O)[C@@H]1CSSC[C@H](NC(=O)[C@H](Cc2ccc(Cl)cc2)NC(=O)C(C)(C)NC(=O)CN2CCC(NC(=O)CN3CCN(CC(=O)O)CCN(CC(=O)O)CCN(CC(=O)O)CC3)CC2)C(=O)N[C@@H](CCCCN)C(=O)N[C@@H](CCCNC(=N)N)C(=O)NC(C)(C)C(=O)N[C@@H](CC(N)=O)C(=O)N1)C(C)(C)C)C(N)=O` [PSM-0263] ({DOTA}-[X4][Aib][Phe(4-Cl)]CKR[Aib]NC[Tle]T-NH2; disulfide 4-9), the IC50 in assay [1] (FACS binding, C4-2 cells, competition with 50 nM PSM-0183, category, read-out: pIC50 [C4-2] CAT (converted)) was below 200 nM. For the same molecule, in assay [2] (SPR, hPSMA-Fc, single cycle kinetic, 25° C., category, read-out: pKD CAT (converted)), the Kd is below 12.6 nM.

On to `CC(=O)N[C@H](C(=O)NC(C)(C)C(=O)N[C@@H](Cc1ccccc1)C(=O)N[C@H]1CSSC[C@@H](C(=O)N[C@H](C(=O)N[C@H](C(=O)N[C@@H](CC(=O)O)C(N)=O)[C@@H](C)O)C(C)(C)C)NC(=O)[C@H](CC(N)=O)NC(=O)[C@H](C)NC(=O)[C@H](CCCNC(N)=O)NC(=O)[C@H](CCCCN)NC1=O)[C@@H](C)O` [PSM-0307, Ac-Thr-Aib-Pho-[Cys-Lys-Cit-Ala-Asn-Cys]-Tle-Thr-Asp-NH2] (Ac-T[Aib]FCK[Cit]ANC[Tle]TD-NH2; disulfide 4-9), for which the IC50 in assay [1] (setting [5]) was below 200 nM. Besides, the Kd in assay [2] (setting [6]) is below 12.6 nM.
